Source: patent publication US12037346B2, “Amino-substituted heteroaryls for treating cancers with EGFR mutations” (Nuvalent, Inc., priority 2021, dated 2024)

What was measured:
Type in all cases: cell-based
[1] = molecular target: Ba/F3 HER2-YVMA cells (HER2-A775_G776insYVMA) (Homo sapiens, UniProt P04626, DUP772-775, cells depend on it); test: Cell proliferation assay (CellTiter-Glo), Ba/F3 HER2-YVMA; settings: read-out: Ba/F3 HER2-YVMA cell proliferation IC50
Method: The gene encoding HER2-A775_G776insYVMA (“HER2-YVMA”) was synthesized at GeneRay, cloned into the retroviral construct pMSCV-puro (Biovector), and packaged into retroviral particles. The virus was used to infect Ba/F3 cells (RIKEN) at multiplicity of infection=1 or 10 for 1 day. Infected cells were rescued in media (RPMI-1640 with 10% fetal bovine serum and 1% streptomycin and penicillin) supplemented with mouse IL-3 (10 ng/mL) for 2 days, and stable cell lines were selected by IL-3 withdrawal and puromycin (0.8 μg/mL) for 7 days. Monoclones were selected by single-cell dilution in IL-3-free medium containing puromycin ([…]). Transformation of desired genes was confirmed by Sanger sequencing and western blot using the following antibody: HER2 (CST #2242).
Ba/F3 cells were plated at 1,000 cells/well (40 μL), or NCI-H1781 or A431 cells were plated at 2,000 cells/well (40 μL), in a 384-well plate for 1 day. Test compounds (40 nL) were then added in a 3-fold dilution series using the TECAN EV0200 liquid handler and incubated for 48 hours (“2 days”), 72 hours (“3 days”), or 48 hours followed by renewal of compound solutions and further incubation for 72 hours (“2 days/3 days”). The 72-hour assay was necessary for NCI-H1781 cells, which are slow-growing, and the resupply of fresh compounds on day 3 obviated the potential confounding effects arising from compound degradation in cell media over 72 hours. Plates were equilibrated at room temperature for 15 minutes followed by addition of 40 μL CellTiter-Glo reagent (Promega). Luminescence was measured on a plate reader. Half-maximal inhibitory concentration (IC50) was calculated from percent inhibition and inhibitor concentration using four-parameter logistic regression. […] In these cases, the regression curve was drawn only for the first inflexion to accurately measure on-target growth inhibitory effect.
Ba/F3, NCI-H1781, and A431 proliferation is driven by the oncogenes in the same way that cancer cell proliferation in humans is driven by the expression of equivalent oncogenes.

[2] = system: A431 cells (amplification of the wild-type EGFR gene), phospho-ERK Thr202/Tyr204; test: Cellular phosphorylation assay, pERK (phospho-ERK Thr202/Tyr204 AlphaLISA) in A431; settings: Homo sapiens, A-431, compound incubated for 5 hours
Method: (§1) Besides Ba/F3s, two commercially available cell lines were also used. NCI-H1781 is a HER2 exon20 insertion cell line bearing HER2-A775_G776insV-G776C. A431 bears amplification of the wild-type EGFR gene.
(§2) Ba/F3 cells were plated at 50,000 cells/well (40 μL), or NCI-H1781 cells or A431 cells were plated at 12,500 cells/well (40 μL), in a 384-well plate for 1 day. Test compounds (40 nL) were then added in a 3-fold dilution series using the TECAN EV0200 liquid handler and incubated for 5 hours. Only for pEGFR analysis in A431, the cells were briefly stimulated with EGF (30 ng/mL) for 15 minutes. Media were removed using Apricot Designs. Phosphoproteins were analyzed using the phospho-EGFR Tyr1068 AlphaLISA kit (“pEGFR”; PerkinElmer #ALSU-PEGFR-B10K;) phospho-ERK Thr202/Tyr204 AlphaLISA kit (“pERK”; PerkinElmer #ALSU-PERK-A10K) or the phospho-ErbB2 Tyr1221/1222 AlphaLISA kit (“pHER2”; PerkinElmer #ALSU-PEB2-A10K;) according to the manufacturer's instructions. Briefly, cells were lysed with lysis buffer (10 μL) containing protease-inhibitor and phosphatase-inhibitor cocktails. The lysates were transferred into a new optical plate, incubated with the acceptor mix (5 μL) for 1.5-2 hours at room temperature in darkness, and then mixed with the donor mix (5 μL) overnight in darkness. Fluorescence was measured on a plate reader using the appropriate AlphaLISA settings. Half-maximal inhibitory concentration (IC50) was calculated from percent inhibition and inhibitor concentration using four-parameter logistic regression. […]

[3] = molecular target: T1, wild-type EGFR (A431 cells) (Homo sapiens, UniProt P00533); test: Cellular phosphorylation assay, pEGFR (phospho-EGFR Tyr1068 AlphaLISA) in A431; settings: compound incubated for 5 hours, EGF (30 ng/mL) for 15 minutes
T1 construct: A431 bears amplification of the wild-type EGFR gene; endogenous in cells; host or cells: A431
T1 sequence (P00533 25-1210): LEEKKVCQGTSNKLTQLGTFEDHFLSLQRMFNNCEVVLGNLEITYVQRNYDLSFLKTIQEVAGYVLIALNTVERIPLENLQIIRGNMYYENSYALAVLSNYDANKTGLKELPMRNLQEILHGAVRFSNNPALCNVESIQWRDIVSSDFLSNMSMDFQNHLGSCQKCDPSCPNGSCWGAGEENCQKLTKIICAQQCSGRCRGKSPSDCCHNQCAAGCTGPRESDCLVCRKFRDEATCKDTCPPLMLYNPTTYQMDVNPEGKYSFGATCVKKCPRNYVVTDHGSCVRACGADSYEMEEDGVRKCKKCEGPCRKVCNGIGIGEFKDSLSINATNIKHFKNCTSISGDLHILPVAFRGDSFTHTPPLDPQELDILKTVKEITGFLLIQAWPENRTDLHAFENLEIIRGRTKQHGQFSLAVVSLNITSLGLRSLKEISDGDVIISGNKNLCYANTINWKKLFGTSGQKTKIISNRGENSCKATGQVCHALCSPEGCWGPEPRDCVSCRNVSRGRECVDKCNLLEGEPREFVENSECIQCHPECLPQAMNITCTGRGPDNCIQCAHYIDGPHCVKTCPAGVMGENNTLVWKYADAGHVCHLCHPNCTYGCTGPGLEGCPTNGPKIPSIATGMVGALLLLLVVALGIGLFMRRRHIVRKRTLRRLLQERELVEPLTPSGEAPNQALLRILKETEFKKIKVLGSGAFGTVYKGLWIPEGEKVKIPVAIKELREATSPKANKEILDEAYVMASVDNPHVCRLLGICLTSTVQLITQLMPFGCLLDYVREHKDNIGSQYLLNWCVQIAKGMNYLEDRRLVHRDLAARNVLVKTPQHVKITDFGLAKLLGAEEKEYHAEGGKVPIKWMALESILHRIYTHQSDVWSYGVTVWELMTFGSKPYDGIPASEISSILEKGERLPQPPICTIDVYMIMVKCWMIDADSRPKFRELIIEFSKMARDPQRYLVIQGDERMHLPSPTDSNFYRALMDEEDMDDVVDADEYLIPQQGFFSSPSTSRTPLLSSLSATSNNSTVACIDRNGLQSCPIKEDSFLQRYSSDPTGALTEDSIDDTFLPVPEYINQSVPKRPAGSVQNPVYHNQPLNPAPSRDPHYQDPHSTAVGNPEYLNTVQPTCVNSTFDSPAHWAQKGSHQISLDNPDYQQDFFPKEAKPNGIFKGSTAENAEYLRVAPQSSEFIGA
Method: as §1, §2

Ba/F3 HER2-YVMA cells (HER2-A775_G776insYVMA), sequence (P04626 with tags, fused parts or gaps DUP772-775): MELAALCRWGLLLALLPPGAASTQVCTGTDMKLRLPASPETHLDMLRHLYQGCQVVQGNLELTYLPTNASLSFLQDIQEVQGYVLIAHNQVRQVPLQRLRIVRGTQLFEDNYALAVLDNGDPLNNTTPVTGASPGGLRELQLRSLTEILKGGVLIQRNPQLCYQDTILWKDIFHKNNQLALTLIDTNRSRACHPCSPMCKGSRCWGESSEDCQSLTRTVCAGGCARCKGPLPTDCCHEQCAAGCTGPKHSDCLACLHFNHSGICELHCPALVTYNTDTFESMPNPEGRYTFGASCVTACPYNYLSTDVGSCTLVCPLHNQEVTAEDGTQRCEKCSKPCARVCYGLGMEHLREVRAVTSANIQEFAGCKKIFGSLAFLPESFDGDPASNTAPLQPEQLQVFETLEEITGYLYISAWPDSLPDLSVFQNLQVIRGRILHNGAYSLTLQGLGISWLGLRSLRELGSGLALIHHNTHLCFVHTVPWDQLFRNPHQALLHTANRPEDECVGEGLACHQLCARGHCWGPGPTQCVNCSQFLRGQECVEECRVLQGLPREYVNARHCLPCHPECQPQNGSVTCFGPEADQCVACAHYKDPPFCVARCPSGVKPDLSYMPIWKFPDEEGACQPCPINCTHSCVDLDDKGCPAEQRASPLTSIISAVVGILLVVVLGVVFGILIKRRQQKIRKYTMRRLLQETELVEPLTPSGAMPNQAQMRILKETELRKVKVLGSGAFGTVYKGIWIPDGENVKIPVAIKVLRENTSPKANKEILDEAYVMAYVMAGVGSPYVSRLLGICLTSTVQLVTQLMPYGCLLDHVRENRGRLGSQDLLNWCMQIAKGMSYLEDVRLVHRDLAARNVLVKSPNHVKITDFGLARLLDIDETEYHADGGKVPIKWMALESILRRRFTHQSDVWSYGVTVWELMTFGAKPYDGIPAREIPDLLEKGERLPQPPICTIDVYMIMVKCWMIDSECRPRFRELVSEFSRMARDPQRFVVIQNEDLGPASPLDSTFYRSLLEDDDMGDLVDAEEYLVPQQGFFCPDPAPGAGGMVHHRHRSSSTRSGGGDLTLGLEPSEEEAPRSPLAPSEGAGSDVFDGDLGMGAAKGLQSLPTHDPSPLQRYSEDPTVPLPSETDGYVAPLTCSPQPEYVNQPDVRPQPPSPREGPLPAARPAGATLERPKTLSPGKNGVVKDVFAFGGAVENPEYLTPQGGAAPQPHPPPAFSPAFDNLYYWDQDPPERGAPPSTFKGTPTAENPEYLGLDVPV

Row | GI50 [1] [nM] | IC50 [2] [nM] | IC50 [3] [nM] | SMILES
1 | 100 to 500 | – | ≥ 1000 | C=CC(=O)N1CCN(c2ncc3ncnc(Nc4cc(C)c(Oc5ccn6ncnc6c5)cc4F)c3n2)CC1(C)C [Example 76]
2 | < 100 | – | 100 to 500 | C=CC(=O)N1CCN(c2ncc3ncnc(Nc4ccc(Oc5ccn6ncnc6c5)c(C)c4F)c3n2)CC1(C)C [Example 77]
3 | < 100 | 500 to 1000 | ≥ 1000 | C=CC(=O)N1CC=C(c2ncc3ncnc(Nc4ccc(Oc5ccn6ncnc6c5)c(C)c4F)c3n2)C[C@H]1C [Example 80]
4 | < 100 | 100 to 500 | 100 to 500 | C=CC(=O)N1CCN(c2ncc3ncnc(Nc4ccc(Oc5ccn6ncnc6c5)c(C)c4F)c3n2)C[C@H]1CF [Example 81]
5 | < 100 | 100 to 500 | < 100 | C=CC(=O)N1CCN(c2ncc3ncnc(Nc4ccc(Oc5ccn6ncnc6c5)c(Cl)c4F)c3n2)C[C@H]1C [Example 82]
6 | < 100 | 100 to 500 | 100 to 500 | Cc1c(Oc2ccn3ncnc3c2)ccc(Nc2ncnc3cnc(C4=C[C@@H](C)N(C(=O)/C=C/CN(C)C)CC4)nc23)c1F [Example 83]
7 | < 100 | 100 to 500 | 500 to 1000 | C=CC(=O)N1CCN(c2ncc3ncnc(Nc4ccc(Oc5ccc6c(c5)ncn6C)c(C)c4F)c3c2F)C[C@H]1C [Example 84]
8 | < 100 | ≥ 1000 | ≥ 1000 | C=CC(=O)N1CC=C(c2ccc3ncnc(Nc4ccc(Oc5ccn6ncnc6c5)c(C)c4)c3n2)C[C@@H]1C [Example 85]
9 | < 100 | 100 to 500 | 100 to 500 | C=CC(=O)N1CC=C(c2ccc3ncnc(Nc4ccc(Oc5ccn6ncnc6c5)c(C)c4)c3n2)C[C@H]1C [Example 86]
10 | < 100 | – | ≥ 1000 | C=CC(=O)N1C(C)CN(c2ccc3ncnc(Nc4ccc(Oc5ccn6ncnc6c5)c(C)c4)c3n2)CC1C (stereo not drawn) [Example 92]
11 | < 100 | – | ≥ 1000 | C=CC(=O)N1CCN(c2ccc3ncnc(Nc4ccc(Oc5ccn6ncnc6c5)c(C)c4F)c3c2F)CC1 [Example 93]
12 | < 100 | ≥ 1000 | 500 to 1000 | C=CC(=O)N1CCC(c2ncc3ncnc(Nc4ccc(Oc5ccn6ncnc6c5)c(C)c4)c3n2)=C[C@@H]1C [Example 94]
13 | < 100 | 500 to 1000 | – | C=CC(=O)N1CC=C(c2ncc3ncnc(Nc4ccc(Oc5cc(C)n6ncnc6c5)c(C)c4F)c3n2)C[C@@H]1C [Example 97]
14 | < 100 | – | 500 to 1000 | C=CC(=O)N1CCN(c2ncc3ncnc(Nc4ccc(Oc5ccn6ncnc6c5)c(C)c4F)c3n2)CC1 [Example 98]
15 | < 100 | – | < 100 | C=CC(=O)N1CCN(c2ncc3ncnc(Nc4ccc(Oc5ccn6ncnc6c5)c(C)c4F)c3n2)C[C@H]1C(F)F [Example 99]

Continued, compound first:

Row | SMILES | GI50 [1] [nM] | IC50 [2] [nM] | IC50 [3] [nM]
16 | C=CC(=O)N1CC=C(c2ccc3ncnc(Nc4ccc(Oc5ccc6ocnc6c5)c(C)c4)c3n2)CC1 [Example 10] | < 100 | 100 to 500 | < 100
17 | C=C(F)C(=O)N1CCN(c2ccc3ncnc(Nc4ccc(Oc5ccn6ncnc6c5)c(C)c4)c3n2)CC1 [Example 24] | 500 to 1000 | – | ≥ 1000
18 | Cc1cc(Nc2ncnc3ccc(C4=CCN(C(=O)/C=C/C5CCCN5C)CC4)nc23)ccc1Oc1ccn2ncnc2c1 (stereo not drawn) [Example 25] | 100 to 500 | ≥ 1000 | ≥ 1000
19 | C=CC(=O)N1CCC=C(c2ccc3ncnc(Nc4ccc(Oc5ccn6ncnc6c5)c(C)c4)c3n2)C1 [Example 27] | 100 to 500 | ≥ 1000 | ≥ 1000
20 | C=CC(=O)N1CCC(c2ccc3ncnc(Nc4ccc(Oc5ccn6ncnc6c5)c(C)c4)c3n2)C(C)C1 (stereo not drawn) [Example 28] | 100 to 500 | ≥ 1000 | ≥ 1000
21 | C=CC(=O)N1CC=C(c2ccc3ncnc(Nc4ccc(Oc5ccn6ncnc6c5)c(C)c4)c3c2F)CC1 [Example 30] | 100 to 500 | – | ≥ 1000
22 | C=CC(=O)N1CC(c2ccc3ncnc(Nc4ccc(Oc5ccn6ncnc6c5)c(C)c4)c3n2)C1 [Example 33] | 100 to 500 | ≥ 1000 | ≥ 1000
23 | C=CC(=O)N1C[C@@H]2CN(c3ncc4ncnc(Nc5ccc(Oc6ccn7ncnc7c6)c(C)c5F)c4n3)C[C@@H]2C1 [Example 46] | 100 to 500 | – | ≥ 1000
24 | C=CC(=O)N1CCC2(C1)CN(c1ncc3ncnc(Nc4ccc(Oc5ccn6ncnc6c5)c(C)c4F)c3n1)C2 [Example 47] | 100 to 500 | – | ≥ 1000
25 | C=CC(=O)N1CCC2(CCN(c3ncc4ncnc(Nc5ccc(Oc6ccn7ncnc7c6)c(C)c5F)c4n3)C2)C1 (stereo not drawn) [Example 48] | 100 to 500 | – | ≥ 1000
26 | C=CC(=O)N1CC=C(c2ncc3ncnc(Nc4ccc(Oc5ccn6ncnc6c5)c(C)c4F)c3n2)CCC1 [Example 57] | < 100 | – | 100 to 500
27 | C=CC(=O)N1CCC(c2ncc3ncnc(Nc4cc(C)c(Oc5ccn6ncnc6c5)cc4F)c3n2)=C[C@@H]1C [Example 58] | < 100 | ≥ 1000 | ≥ 1000
28 | C=CC(=O)N1CC=C(c2ncc3ncnc(Nc4ccc(Oc5ccn6ncnc6c5)c(C(F)F)c4F)c3n2)C[C@@H]1C [Example 61] | 100 to 500 | ≥ 1000 | –
29 | C=CC(=O)N1CCN(c2ncc3ncnc(Nc4ccc(Oc5ccn6ncnc6n5)c(C)c4F)c3n2)C[C@H]1C [Example 65] | 100 to 500 | ≥ 1000 | ≥ 1000
30 | C=CC(=O)N1CC=C(c2nc3c(Nc4ccc(Oc5ccn6ncnc6c5)c(C)c4)ncnc3cc2OC)CC1 [Example 66] | < 100 | – | 100 to 500
31 | C=CC(=O)N1CCN(c2ncc3ncnc(Nc4ccc(Oc5ccc6c(c5)ncn6C)cc4F)c3n2)CC1 [Example 67] | < 100 | 500 to 1000 | ≥ 1000
32 | C=CC(=O)N1CCN(c2ncc3ncnc(Nc4ccc(Oc5ccc6c(c5)ncn6C)c(C)c4F)c3n2)C[C@H]1C [Example 68] | < 100 | 100 to 500 | 500 to 1000
33 | Cc1c(Oc2ccn3ncnc3c2)ccc(Nc2ncnc3cnc(C4=CCN(C(=O)/C=C/CN(C)C)CC4)nc23)c1F [Example 69] | < 100 | 100 to 500 | 500 to 1000
34 | C=CC(=O)N1CC=C(c2ccc3ncnc(Nc4ccc(Oc5ccn6ccnc6c5)c(C)c4)c3n2)CC1 [Example 70] | < 100 | 100 to 500 | 100 to 500
35 | C=CC(=O)N1CC=C(c2ccc3ncnc(Nc4ccc(Oc5ccc6ccn(C)c6c5)c(C)c4)c3n2)CC1 [Example 71] | 100 to 500 | 100 to 500 | 100 to 500
36 | C=CC(=O)N1CC=C(c2ccc3ncnc(Nc4ccc(Oc5ccn6nccc6c5)c(C)c4)c3n2)CC1 [Example 72] | < 100 | 100 to 500 | < 100
37 | C=CC(=O)N1CCN(c2ncc3ncnc(Nc4ccc(Oc5cc6ncnn6cn5)c(C)c4F)c3n2)C[C@H]1C [Example 73] | < 100 | 100 to 500 | 100 to 500
38 | C=CC(=O)N1CCN(c2ncc3ncnc(Nc4ccc(Oc5ccc6c(c5)ncn6C)c(C)c4F)c3n2)CC1 [Example 74] | < 100 | < 100 | 100 to 500
39 | C=CC(=O)N1CCN(c2ccc3ncnc(Nc4ccc(Oc5ccn6c(C)cnc6c5)c(C)c4F)c3c2F)C[C@H]1C [Example 75] | < 100 | 100 to 500 | 500 to 1000
